A short description of assay [1]: Effectiveness testing of AII fragments (test not specified). The following applies: test not described.
The subject of a further assay is AT2 receptor. The following applies: cited from earlier work.
In assay [2] the test system is Female C57B1/6 mice. Nature of the assay: Post-irradiation mouse mortality/survival (600 cGy total body irradiation). Format: in vivo. Here is the method: (§1) Female C57B1/6 mice (Jackson Labs, Bar Harbor, Me.) were irradiated with 600 cGy total body irradiation. Subcutaneous injection with either AII (10 μg/kg/day or 100 μg/kg/day) or saline (placebo) was initiated two days before (−day 2), on the day of (day 0) or 2 days after (+day 2) irradiation and continued until the animals succumbed to the irradiation or were necropsied. At various times after irradiation, the mice were anaesthetized with Metofane (Pittman-Moore Animal Health, NZ) and bled via the retro-orbital sinus. Red blood cells were lysed with 0.3% acetic acid and the number of white blood cells was determined by counting with a hemacytometer. […] Furthermore, AII administration at all time periods tested increased the number of circulating white blood cells (FIGS. 4-6).

For assay [3], the system named is Female C57B1/6 mice. Nature of the assay: Blood cell recovery after irradiation (white blood cells, megakaryocytes, monocytes, neutrophils, lymphocytes). The assay is classed as in vivo. Here is the method:
as §1

The test system of a further assay is C57B1/6 mice. In words: Survival and white blood cell number of mice receiving bone marrow transplantation after lethal irradiation. The assay is classed as in vivo. Here is the method: Donor C57B1/6 mice (female, 6-8 weeks old) were irradiated with 600 cGy total body irradiation. Starting on the day of irradiation, the mice received either saline (0.1 ml) or 20 μg/ml angiotensin II (0.1 ml, 100 μg/kg) subcutaneously for fourteen days. At the end of this period, the bone marrow was harvested from the femur by flushing and the number of viable nucleated cells determined by counting under a light microscope on a hemacytometer in the presence of trypan blue.
These donor bone marrow cells were then injected intravenously into recipient mice (female C57B1/6, 6-8 weeks old) that had been lethally irradiated (900 cGy total body irradiation) at two concentrations: 1×10^6 or 1×10^5 cells per mouse. After injection, the recipient mice received either saline or 100 μg/kg AII subcutaneously until death or termination. The study design in its entirety is as follows:
The survival of the mice and the number of circulating white blood cells were measured as a function of time post-bone marrow transplantation.

The test system of the next assay is wound tissue. The following applies: application to wound tissue; cited from earlier work.
For assay [4], the system named is cultured cells that are involved in wound repair. The following applies: cited from earlier work.
The next assay concerns rabbit corneal eye. The following applies: rabbit corneal eye model; cited from earlier work.
For assay [5], the system named is chick chorioallantoic membrane. The following applies: chick chorioallantoic membrane model; cited from earlier work.
[6] abbreviates: recipients 900 cGy, AII 100 μg/kg s.c. to donor and/or recipient.

Results on four substances are retold here after US7776828B2, “Radiation therapy methods” (University of Southern California, priority 1998, dated 2010).

“Also recorded” adds a separate entry of the source. Non-standard residues stand in square brackets, D forms with d. No end group written: not given here. Phe(4-NH2) = Nc1ccc(C[C@H](N)C(=O)O)cc1

With Tyr-Ile-His-Pro-Phe (YIHPF) [AII(4-8)], in assay [1], the effectiveness result is “not to be effective; also recorded: ineffective”.
Regarding “Asp-Arg-Val-Tyr-Ile-Xaa-Pro-Phe (DRVYI[Phe(4-NH2)]PF) [p-aminophenylalanine6-AII, reference compound]”, in the assay on AT2 receptor (compared with AT2 antagonists in the experimental models tested), the binding characteristics entry is reported as “comparable to AT2 antagonists”.
For His-Pro-Phe (HPF) [AII(6-8)], in assay [1], the effectiveness result was “not to be effective”.
On to “Asp-Arg-Val-Tyr-Ile-His-Pro-Phe (DRVYIHPF) [AII]”, for which the survival after irradiation entry is listed as “substantially increased survival” in the assay with Female C57B1/6 mice [2] (AII 10 or 100 μg/kg/day s.c. starting on the day of irradiation (day 0), FIG. 2) and “substantially increased survival” in the assay with Female C57B1/6 mice [2] (AII 10 or 100 μg/kg/day s.c. starting two days after irradiation (+day 2), FIG. 3). The “protection against mortality resulting from irradiation” value in the assay on Female C57B1/6 mice [2] (AII 10 or 100 μg/kg/day s.c. starting two days prior to irradiation (-day 2), FIG. 1) is “did not protect against mortality”. For the same substance, the number of megakaryocytes entry with Female C57B1/6 mice [3] (after 600 cGy irradiation, FIGS. 7-9) is “increased”. In addition, the number of monocytes entry with Female C57B1/6 mice [3] (after 600 cGy irradiation, FIGS. 10-12) is “increased”. Also, in the assay on Female C57B1/6 mice [3] (after 600 cGy irradiation, FIGS. 13-15), the number of neutrophils entry is reported as “increased”. For the same substance, the number of lymphocytes entry in the assay with Female C57B1/6 mice [3] (after 600 cGy irradiation, FIGS. 16-18) is listed as “increased”. Besides, the “number of circulating white blood cells” value with Female C57B1/6 mice [3] (all time periods tested (-day 2, day 0, +day 2), 600 cGy, FIGS. 4-6) is listed as “increased”. The “number of circulating white blood cells post-bone marrow transplantation” value in the assay on C57B1/6 mice (setting [6]) is “increased”. For the same substance, the “survival post-bone marrow transplantation” value in the assay with C57B1/6 mice (setting [6]) is “increased”. Also, in the assay on C57B1/6 mice (treatment of both the donor bone marrow cells and the recipient mice with AII), the “benefit (survival and white blood cell number)” value is on record as “greatest benefit”. In addition, in the assay on AT2 receptor (selectivity AT2 over AT1), the “affinity for AT2 than AT1” value is listed as 100 times. In the assay with wound tissue, the “rate of wound healing” value is recorded as “significantly increases”. Besides, the mitogenesis and chemotaxis result in [4] is listed as “increases”. In assay [4], the “release of growth factors and extracellular matrices” value is listed as “increases”. Besides, the angiogenic activity entry (with rabbit corneal eye; in assay [5]) was “angiogenic” throughout.
